Where two headings read alike, the source gives them in different places. Numbered stars: 1 amine (or outer) side, 2 acyl side, 3 side chain; on linkers, the order of the positions; unused ones are H or OH. Bridge positions count the residues as written; N and C are the ends. Peptide text beside a SMILES is read from it. * marks the point of attachment. C20 diacid = O=C(O)CCCCCCCCCCCCCCCCCCC(=O)*; γGlu = O=C(O)[C@H](CCC(=O)[*:2])N[*:1]
Columns and labels:
[1] = biological target: T1, rat calcitonin receptor (Rattus norvegicus, UniProt P32214); assay: ASSAY (VIII) binding to the rat calcitonin receptor; settings: Table 7, read-out: rCTR bind IC50
T1 construct: expressed in transfected cells; host or cells: BHK tk'ts 13 (transient, FuGENE 6), membranes
T1 sequence (P32214 25-479 isoform P32214-2 limits assumed): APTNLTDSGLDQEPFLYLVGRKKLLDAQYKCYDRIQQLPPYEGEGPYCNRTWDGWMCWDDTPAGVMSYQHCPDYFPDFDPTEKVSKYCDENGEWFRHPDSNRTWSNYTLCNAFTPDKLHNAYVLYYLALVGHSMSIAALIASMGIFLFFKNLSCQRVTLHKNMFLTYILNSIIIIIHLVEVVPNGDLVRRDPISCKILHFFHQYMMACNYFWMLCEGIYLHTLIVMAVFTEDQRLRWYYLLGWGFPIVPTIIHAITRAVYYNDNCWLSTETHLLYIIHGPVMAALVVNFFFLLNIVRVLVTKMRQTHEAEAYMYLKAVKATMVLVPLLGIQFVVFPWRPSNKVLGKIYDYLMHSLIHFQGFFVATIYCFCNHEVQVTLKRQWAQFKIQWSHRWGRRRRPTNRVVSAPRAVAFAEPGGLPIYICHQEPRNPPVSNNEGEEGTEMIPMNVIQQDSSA
How it was run: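 Receptor source: membranes from transiently transfected BHK tk′ts 13 cells expressing rat calcitonin receptor, collected roughly 48 hours after transfection.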

[2] = biological target: T2, rat amylin receptor (rat calcitonin receptor + rat RAMP 3) (Rattus norvegicus, UniProt P32214+Q9JJ73); assay: ASSAY (VI) binding to the rat amylin receptor; settings: for IC50: binding to rat amylin receptor, read-out: rAmylin-R bind IC50; for Ratio rCT/rAmylin binding: rat binding selectivity, rCTR IC50 / rAmylin-R IC50
T2 construct: expressed in transfected cells; host or cells: BHK tk'ts 13 (transient, FuGENE 6), membranes
T2 sequence (P32214 25-479 isoform P32214-2 limits assumed): T1 sequence (P32214 25-479 isoform P32214-2 limits assumed)
T2 sequence (Q9JJ73 23-147 partner): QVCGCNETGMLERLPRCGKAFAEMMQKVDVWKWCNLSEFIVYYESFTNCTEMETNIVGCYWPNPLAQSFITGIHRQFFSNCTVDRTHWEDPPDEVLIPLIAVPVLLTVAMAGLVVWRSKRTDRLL
How it was run: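 Membranes for this rat amylin receptor binding assay came from BHK tk′ts 13 cells. The cells were transiently transfected with rat calcitonin receptor using the FuGENE® 6 reagent from Roche, as the manufacturer recommends. The cells were collected approximately 48 hours after transfection, and membranes were then prepared.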

[3] = test system: Sprague Dawley (SD) rats; assay: ASSAY (I) efficacy testing on appetite (food intake) using an ad libitum fed rat model; format: in vivo; settings: rat, 30 nmol/kg
Text: Sprague Dawley (SD) rats from Taconic Europe, Denmark are used for the experiments. The rats have a body weight 200-250 g at the start of experiment. The rats arrive at least 10-14 days before start of experiment to allow acclimatization to experimental settings. During this period the animals are handled at least 2 times. After arrival rats are housed individually for one week in a reversed light/dark phase (meaning that lights are off during daytime and on during nighttime) for two weeks. Since rats are normally active and eat their major part of their daily food intake during the dark period, rats are dosed in the morning right before lights are turned off. This set-up results in the lowest data variation and highst test sensitivity. The experiment is conducted in the rats' home cages and rats have free access to food and water throughout the acclimatization period and the experiment period. Each dose of derivative is tested in a group of 5-8 rats. A vehicle group of 6-8 rats is included in each set of testing. Rats are dosed once according to body weight with a 0.01-3 mg/kg solution administered intraperitoneally (ip), orally (po) or subcutaneously (sc). The time of dosing is recorded for each group. After dosing, the rats are returned to their home cages, where they then have access to food and water. The food consumption is recorded individually continuously by online registration or manually every hour for 7 hours, and then after 24 h and sometimes 48 h. At the end of the experimental session, the animals are euthanized.
The individual data are recorded in Microsoft excel sheets. Outliers are excluded after applying the Grubbs statistical evaluation test for outliers, and the result is presented graphically using the GraphPad Prism program.

[4] = ASSAY (IV) determination of solubility; format: physicochemical
How it was run: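 UPLC read-out of polypeptide concentration after centrifugation. Samples: aqueous polypeptide stock ([…]) + 100 mM buffer 1:1, glycylglycine pH 3.0–5.0 or bistrispropane pH 6.0–8.0; 18 h, RT.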

[5] = biological target: T3, human amylin receptor (membranes from Amylin 3(a)/CRE-luc cells) (Homo sapiens, UniProt O60896+P30988); assay: ASSAY (V) binding to the human amylin receptor (SPA, 125I-rat amylin);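 note: competition binding of cell membranes (35 ng/µL) mixed with SPA beads in 384-well plates at 40 µL total volume, read by scintillation counting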
T3 construct: expressed in transfected cells
T3 sequence (P30988 25-474): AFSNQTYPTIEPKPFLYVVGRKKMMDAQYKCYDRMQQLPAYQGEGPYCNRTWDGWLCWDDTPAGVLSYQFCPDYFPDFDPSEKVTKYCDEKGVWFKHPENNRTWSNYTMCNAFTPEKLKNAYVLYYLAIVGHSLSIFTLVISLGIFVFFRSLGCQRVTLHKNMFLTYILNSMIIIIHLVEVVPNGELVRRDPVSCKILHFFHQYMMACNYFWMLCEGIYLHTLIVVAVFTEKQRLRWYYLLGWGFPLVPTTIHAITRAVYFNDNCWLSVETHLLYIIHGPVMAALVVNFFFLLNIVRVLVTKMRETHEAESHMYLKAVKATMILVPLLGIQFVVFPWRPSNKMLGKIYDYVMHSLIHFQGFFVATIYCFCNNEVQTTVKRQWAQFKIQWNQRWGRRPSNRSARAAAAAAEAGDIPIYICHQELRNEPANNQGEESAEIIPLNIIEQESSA
T3 sequence (O60896 24-148 partner): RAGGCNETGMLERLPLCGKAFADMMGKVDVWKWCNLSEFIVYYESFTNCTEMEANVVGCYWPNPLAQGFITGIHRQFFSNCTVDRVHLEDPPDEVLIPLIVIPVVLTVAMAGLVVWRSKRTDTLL

[6] = bistrispropane buffer, pH 6.5, read-out: Solubility pH 6.5 Concentration
[7] = bistrispropane buffer, pH 7.5, read-out: Solubility pH 7.5 Concentration
[8] = bistrispropane buffer, pH 6.0, read-out: Solubility pH 6.0 Concentration
[9] = bistrispropane buffer, pH 7.0, read-out: Solubility pH 7.0 Concentration
[10] = bistrispropane buffer, pH 8.0, read-out: Solubility pH 8.0 Concentration
[11] = glycylglycine buffer, pH 3.0, read-out: Solubility pH 3.0 Concentration
[12] = glycylglycine buffer, pH 4.0, read-out: Solubility pH 4.0 Concentration
[13] = glycylglycine buffer, pH 5.0, read-out: Solubility pH 5.0 Concentration

| SMILES | IC50 [1] [nM] | IC50 ([2]; Table 7) [nM] | Food intake reduction 0-24 h 30 nmol/kg (%) ([3]; 0-24 h) | Food intake reduction 24-48 h 30 nmol/kg (%) ([3]; 24-48 h) | solubility at 18 h [4, 6] [µM] | solubility at 18 h [4, 7] [µM] | solubility at 18 h [4, 8] [µM] | solubility at 18 h [4, 9] [µM] | solubility at 18 h [4, 10] [µM] | solubility at 18 h [4, 11] [µM] | solubility at 18 h [4, 12] [µM] | solubility at 18 h [4, 13] [µM] | Ratio rCT/rAmylin binding ([2]; Table 7) | Ratio rCT/rAmylin binding ([2]; Table 7a (preferred compounds)) | IC50 ([5]; Table 4, read-out: hAmylin-R bind IC50) [nM] | Ratio hCT/hAmylin binding ([5]; Table 5, selectivity, hCTR bind IC50 / hAmylin-R bind IC50) | Ratio hCT/hAmylin binding ([5]; Table 7, human binding selectivity, included for comparison) | Ratio hCT/hAmylin binding ([5]; Table 7a (preferred compounds), human binding selectivity, included for comparison) |
| --- | --- | --- | --- | --- | --- | --- | --- | --- | --- | --- | --- | --- | --- | --- | --- | --- | --- | --- |
| CC[C@H](C)[C@H](NC(=O)[C@H](C)NC(=O)CNC(=O)[C@H](Cc1ccccc1)NC(=O)[C@H](CC(N)=O)NC(=O)[C@@H]1CCCN1C(=O)[C@H](CO)NC(=O)[C@H](CO)NC(=O)[C@H](Cc1c[nH]cn1)NC(=O)[C@H](CCCNC(=N)N)NC(=O)[C@H](CC(C)C)NC(=O)[C@H](Cc1ccccc1)NC(=O)[C@H](CC(N)=O)NC(=O)[C@H](C)NC(=O)[C@H](CC(C)C)NC(=O)[C@H](CCCNC(=N)N)NC(=O)[C@H](CCC(N)=O)NC(=O)[C@@H](NC(=O)[C@H](C)NC(=O)[C@@H]1CSSC[C@H](NC(=O)[C@@H](N)CCCCNC(=O)COCCOCCNC(=O)CC[C@H](NC(=O)CCCCCCCCCCCCCCCCCCC(=O)O)C(=O)O)C(=O)N[C@@H](CC(N)=O)C(=O)N[C@@H]([C@@H](C)O)C(=O)N[C@@H](C)C(=O)N[C@@H]([C@@H](C)O)C(=O)N1)[C@@H](C)O)C(=O)N1CCC[C@H]1C(=O)N[C@@H](CO)C(=O)N[C@@H](CO)C(=O)N[C@H](C(=O)N[C@@H](CC(N)=O)C(=O)N[C@H](C(=O)NCC(=O)N[C@@H](CO)C(=O)N[C@@H](CCCNC(=N)N)C(=O)N[C@H](C(=O)N[C@@H](Cc1ccc(O)cc1)C(N)=O)[C@@H](C)O)C(C)C)[C@@H](C)O [Example 38] | 38 | 0.383 | 47 | 0 | ≥ 200 | ≥ 200 | ≥ 200 | ≥ 200 | ≥ 200 | ≥ 200 | ≥ 200 | ≥ 200 | – | – | – | – | – | – |
| CC[C@H](C)[C@H](NC(=O)[C@H](C)NC(=O)CNC(=O)[C@H](Cc1ccccc1)NC(=O)[C@H](CC(N)=O)NC(=O)[C@@H]1CCCN1C(=O)[C@H](CO)NC(=O)[C@H](CO)NC(=O)[C@H](Cc1c[nH]cn1)NC(=O)[C@H](CCCNC(=N)N)NC(=O)[C@H](CC(C)C)NC(=O)[C@H](Cc1ccccc1)NC(=O)[C@H](CCC(=O)O)NC(=O)[C@H](C)NC(=O)[C@H](CC(C)C)NC(=O)[C@H](CCCNC(=N)N)NC(=O)[C@H](CCC(N)=O)NC(=O)[C@@H](NC(=O)[C@H](C)NC(=O)[C@@H]1CSSC[C@H](NC(=O)[C@H](CCCCN)NC(=O)CC[C@H](NC(=O)CCCCCCCCCCCCCCCCCCC(=O)O)C(=O)O)C(=O)N[C@@H](CC(N)=O)C(=O)N[C@@H]([C@@H](C)O)C(=O)N[C@@H](C)C(=O)N[C@@H]([C@@H](C)O)C(=O)N1)[C@@H](C)O)C(=O)N1CCC[C@H]1C(=O)N[C@@H](CO)C(=O)N1CCC[C@H]1C(=O)N[C@H](C(=O)N[C@@H](CC(N)=O)C(=O)N[C@H](C(=O)NCC(=O)N[C@@H](CO)C(=O)N[C@@H](CC(N)=O)C(=O)N[C@H](C(=O)N[C@@H](Cc1ccc(O)cc1)C(N)=O)[C@@H](C)O)C(C)C)[C@@H](C)O [Example 37] ({C20 diacid-γGlu}-KCNTATCATQRLAEFLRHSSPNFGAIPSPTNVGSNTY-NH2; disulfide 2-7 (inferred)) | 7.35 | 0.514 | – | – | ≥ 200 | ≥ 200 | ≥ 200 | ≥ 200 | ≥ 200 | ≥ 200 | ≥ 200 | ≥ 200 | 14.3 | 14.3 | 0.97 | 2.3 | 2.3 | 2.3 |

From patent US9023789B2, “Amylin analogs and pharmaceutical compositions thereof” (Novo Nordisk A/S, priority 2012, dated 2015)
